System: acne vulgaris
Test: topical retinoic acid plus laser-induced explosion of carbon particles on the skin of a patient with acne vulgaris (FIG. 4)
Format: in vivo
Details: combination with exploding carbon particles (Q-switched laser); after first six months of treatment; one patient
Text: In the first step 40, pre-treatment is initiated with topical retinoic acid applied to the skin at least twice per week. The concentration of retinoic acid in the topical formulation is between about 0.05% to 1% preferably about 0.1%. […] In the next step 41, a solution of carbon particles in baby oil is applied to the skin. The carbon particle-oil ratio may range from about 1:1 to 1:9, preferably 1:4, i.e., about 25 percent carbon particles suspended in about 75 percent oil by weight. In the next steps 42 and 43 a laser beam is scanned over the skin treated with the carbon particle solution so as to clean substantially all of the carbon particles from the skin surface by exploding or fracturing the carbon particles. This scanning process takes from about 2 to 10 minutes to complete on the face, usually about 4 minutes, exposing the carbon particles only to 1 or 2 pulses of laser light.
The wave length of the radiation may range from about 800 nM to 1200 nM, preferably about 1064 nM. The frequency of the pulses from the laser range from about 1 to 20 per second, preferably, about 10 per second. The duration of each pulse ranges from about 0.001 to 1 microseconds, preferably about 0.1 microseconds. The fluence or exposure of the skin treated with the carbon particles ranges from about 1 to 3 J/cm^2. […]

CC1=C(/C=C/C(C)=C/C=C/C(C)=C/C(=O)O)C(C)(C)CCC1 [retinoic acid]
state of the epidermis / stratum corneum after treatment: leaving the epidermis intact and normal, with no removal of stratum corneum

— patent publication US20090203785A1, “METHOD AND PROCESS FOR PRODUCING YOUTHFUL-APPEARING, SMALL-PORED, AND SMOOTH SKIN” (priority 2002, published 2009)
